In patent US11267825B2 (AICURIS GMBH & CO. KG, priority 2017, dated 2022) one finds IC50 and EC50 data, which are given here for 23 compounds.

In experiment [1] the target is HBV core protein (UniProt P03146). It counts as biochemical. As to conditions: read-out: Assembly Activity (IC50); BODIPY-FL labelled core protein, assembly started with NaCl, read after 6 min. In a few lines:
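Compounds tested at 8 concentrations in 0.5-log steps from 100, 31.6 or 10 μM against 1.0–2.0 μM BODIPY-FL-labelled Cys150 core dimers (residues 1–149), 50 mM HEPES pH 7.5. NaCl ([…] final) triggered assembly; quenching read at 6 min, 477/525 nm, with 2.5 M and 0 M NaCl as controls; EC50 by nonlinear fit.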

Experiment [2] deals with HBV. The experiment in a line: Determination of HBV DNA from the supernatants of HepAD38 cells (anti-HBV activity). Format: cell-based, hepatitis B virus. As to conditions: Hepatitis B virus, 144 h; HBV DNA in HepAD38 supernatant at day 6; read-out: Cell Activity (EC50). In a few lines: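 EC50 values were obtained by non-linear regression of HBV DNA copy numbers measured by qPCR against pCH-9/3091 plasmid standards. The DNA came from filtered supernatants collected on day 6. Before that, tetracycline-withdrawn HepAD38 cells had been exposed to serial half-log compound dilutions, with tetracycline-treated cells as the non-producing control.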

Chain of HBV core protein (P03146 whole entry, looked up, the tested form may be a part): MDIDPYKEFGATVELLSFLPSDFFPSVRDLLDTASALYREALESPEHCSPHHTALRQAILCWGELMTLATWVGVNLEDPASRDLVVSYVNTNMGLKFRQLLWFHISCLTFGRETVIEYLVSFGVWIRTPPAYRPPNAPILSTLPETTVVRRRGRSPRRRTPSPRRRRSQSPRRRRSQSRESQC

In the case of `CC(O)c1cc(F)cc2[nH]c(C(=O)N3CCc4nc(NCC5(CO)CC5)sc4C3)cc12` (stereo not shown) [Example 249, 1-{6-fluoro-2-[2-({[1-(hydroxymethyl)cyclopropyl]methyl}amino)-4H,5H,6H,7H-[1,3]thiazolo[5,4-c]pyridine-5-carbonyl]-1H-indol-4-yl}ethan-1-ol], in experiment [1], the IC50 fell in the range of 5 to 10 µM. Also, the EC50 in experiment [2] is under 1000 nM.
For the compound `CCc1cc(F)cc2[nH]c(C(=O)N3CCc4nc(NC[C@H]5CCOC5)sc4C3)cc12` [Example 329, 5-(4-ethyl-6-fluoro-1H-indole-2-carbonyl)-N-{[(3R)-oxolan-3-yl]methyl}-4H,5H,6H,7H-[1,3]thiazolo[5,4-c]pyridin-2-amine], in experiment [1], the IC50 was under 5 µM. Also, the EC50 in experiment [2] was under 1000 nM.
Turning to `O=C(c1cc2ccccc2[nH]1)N1CCc2nc(NCC(CO)C3CC3)sc2C1` (stereo not shown) [Example 284, 2-cyclopropyl-3-{[5-(1H-indole-2-carbonyl)-4H,5H,6H,7H-[1,3]thiazolo[5,4-c]pyridin-2-yl]amino}propan-1-ol], the IC50 in experiment [1] is under 5 µM. Also, the concentration for a half-maximal effect (EC50) in experiment [2] is under 1000 nM.
For `N#Cc1nc2c(s1)CN(C(=O)c1cc3ccccc3[nH]1)CC2` [Example 203, 5-(1H-indole-2-carbonyl)-4H,5H,6H,7H-[1,3]thiazolo[5,4-c]pyridine-2-carbonitrile], in experiment [1], the IC50 is under 100 µM. In experiment [2], the EC50 was under 100000 nM.
Turning to `Nc1nc2c(s1)CN(C(=O)c1cc3c(C(F)(F)F)cccc3[nH]1)CC2` [Example 146, 5-(4-(trifluoromethyl)-1H-indole-2-carbonyl)-4H,5H,6H,7H-[1,3]thiazolo[5,4-c]pyridin-2-amine], in experiment [1], the IC50 was under 5 µM. The EC50 in experiment [2] is under 1000 nM.
As for `O=C(c1cc2ccccc2[nH]1)N1CCc2nc(CN3CCOCC3)sc2C1` [Example 39, 2-{2-[(morpholin-4-yl)methyl]-4H,5H,6H,7H-[1,3]thiazolo[5,4-c]pyridine-5-carbonyl}-1H-indole], the IC50 in experiment [1] was under 5 µM. Further, the EC50 in experiment [2] is under 1000 nM.
The like results for `CC(CO)CNc1nc2c(s1)CN(C(=O)c1cc3ccccc3[nH]1)CC2` (stereo not shown) [Example 217, 3-{[5-(1H-indole-2-carbonyl)-4H,5H,6H,7H-[1,3]thiazolo[5,4-c]pyridin-2-yl]amino}-2-methylpropan-1-ol] were, in that order, under 5 µM and under 1000 nM.
Take `O=C(c1cc2c(Br)cccc2[nH]1)N1CCc2nc(NCC3(O)CCC3)sc2C1` [Example 364, 1-({[5-(4-bromo-1H-indole-2-carbonyl)-4H,5H,6H,7H-[1,3]thiazolo[5,4-c]pyridin-2-yl]amino}methyl)cyclobutan-1-ol]: in experiment [1], the IC50 was under 5 µM. For the same compound, the EC50 in experiment [2] was under 1000 nM.
The like results for `Cc1nc2c(s1)CN(C(=O)c1cc3c(Cl)cc(F)cc3[nH]1)CC2` [Example 187, 4-chloro-6-fluoro-2-{2-methyl-4H,5H,6H,7H-[1,3]thiazolo[5,4-c]pyridine-5-carbonyl}-1H-indole] were, in that order, under 5 µM and under 1000 nM.
On to `Cc1nc2c(s1)CN(C(=O)c1cc3ccc(Cl)cc3[nH]1)CC2` [Example 162], for which the IC50 in experiment [1] is under 5 µM. Further, the EC50 in experiment [2] is under 1000 nM.
Consider `O=C(c1cc2ccccc2[nH]1)N1CCc2nc(NC[C@H]3CCCC[C@@H]3O)sc2C1` [Example 288, (1S,2R)-2-({[5-(1H-indole-2-carbonyl)-4H,5H,6H,7H-[1,3]thiazolo[5,4-c]pyridin-2-yl]amino}methyl)cyclohexan-1-ol], for which the IC50 in experiment [1] is 5 to 10 µM. Also, the EC50 in experiment [2] is under 1000 nM.
The like results for `CCc1cccc2[nH]c(C(=O)N3CCc4nc(NCC5(CO)CC5)sc4C3)cc12` [Example 272, [1-({[5-(4-ethyl-1H-indole-2-carbonyl)-4H,5H,6H,7H-[1,3]thiazolo[5,4-c]pyridin-2-yl]amino}methyl)cyclopropyl]methanol] were, in that order, under 5 µM and under 1000 nM.
Turning to `CN1CCOC(CNc2nc3c(s2)CN(C(=O)c2cc4ccccc4[nH]2)CC3)C1` (stereo not shown) [Example 23, 5-(1H-indole-2-carbonyl)-N-[(4-methylmorpholin-2-yl)methyl]-4H,5H,6H,7H-[1,3]thiazolo[5,4-c]pyridin-2-amine], the IC50 in experiment [1] lay within 5 to 10 µM. Also, the EC50 in experiment [2] lay within 1000 to 10000 nM.
For `Nc1nc2c(s1)CN(C(=O)c1cc3cc(F)c(F)cc3[nH]1)CC2` [Example 159, 5-(5,6-difluoro-1H-indole-2-carbonyl)-4H,5H,6H,7H-[1,3]thiazolo[5,4-c]pyridin-2-amine], in experiment [1], the IC50 is under 5 µM. Besides, in experiment [2], the EC50 was under 1000 nM.
With `CC(O)c1cccc2[nH]c(C(=O)N3CCc4nc(NCC5(CO)CC5)sc4C3)cc12` (stereo not shown) [Example 250, 1-{2-[2-({[1-(hydroxymethyl)cyclopropyl]methyl}amino)-4H,5H,6H,7H-[1,3]thiazolo[5,4-c]pyridine-5-carbonyl]-1H-indol-4-yl}ethan-1-ol], the IC50 in experiment [1] was under 100 µM. The EC50 in experiment [2] is under 1000 nM.
As to `COC1(CNc2nc3c(s2)CN(C(=O)c2cc4ccccc4[nH]2)CC3)CCOC1` (stereo not shown) [Example 246, 5-(1H-indole-2-carbonyl)-N-[(3-methoxyoxolan-3-yl)methyl]-4H,5H,6H,7H-[1,3]thiazolo[5,4-c]pyridin-2-amine], in experiment [1], the IC50 was under 5 µM. For the same compound, the EC50 in experiment [2] is under 1000 nM.
On the same counts, the results for `CN(C)c1nc2c(s1)CN(C(=O)c1cc3c(F)ccc(F)c3[nH]1)CC2` [Example 133, 5-(4,7-difluoro-1H-indole-2-carbonyl)-N,N-dimethyl-4H,5H,6H,7H-[1,3]thiazolo[5,4-c]pyridin-2-amine] are under 100 µM and 1000 to 10000 nM.
For `CC(=O)N1CCC(C(=O)Nc2nc3c(s2)CN(C(=O)c2cc4ccccc4[nH]2)CC3)CC1` [Example 410, 1-acetyl-N-[5-(1H-indole-2-carbonyl)-4H,5H,6H,7H-[1,3]thiazolo[5,4-c]pyridin-2-yl]piperidine-4-carboxamide], the IC50 in experiment [1] was under 5 µM. In addition, in experiment [2], the EC50 is under 1000 nM.
For the compound `C#Cc1cccc2[nH]c(C(=O)N3CCc4nc(N)sc4C3)cc12` [Example 14, 5-(4-ethynyl-1H-indole-2-carbonyl)-4H,5H,6H,7H-[1,3]thiazolo[5,4-c]pyridin-2-amine], in experiment [1], the IC50 was under 100 µM. The EC50 in experiment [2] is 1000 to 10000 nM.
`CCNCc1nc2c(s1)CN(C(=O)c1cc3ccccc3[nH]1)CC2` [Example 32, Ethyl({[5-(1H-indole-2-carbonyl)-4H,5H,6H,7H-[1,3]thiazolo[5,4-c]pyridin-2-yl]methyl})amine]: in experiment [1], the IC50 is under 100 µM. In addition, the EC50 in experiment [2] is under 100000 nM.
Consider `O=C(c1cc2c(Cl)cc(F)cc2[nH]1)N1CCc2nc(NC3CCOC3)sc2C1` (stereo not shown) [Example 140, 5-(4-chloro-6-fluoro-1H-indole-2-carbonyl)-N-(oxolan-3-yl)-4H,5H,6H,7H-[1,3]thiazolo[5,4-c]pyridin-2-amine], for which the IC50 in experiment [1] is under 5 µM. In experiment [2], the EC50 was under 1000 nM.
On the same counts, the results for `O=C(c1cc2ccccc2[nH]1)N1CCc2nc(NCCc3c[nH]cn3)sc2C1` [Example 286, N-[2-(1H-imidazol-4-yl)ethyl]-5-(1H-indole-2-carbonyl)-4H,5H,6H,7H-[1,3]thiazolo[5,4-c]pyridin-2-amine] are under 5 µM and under 1000 nM.
On the same counts, the results for `Nc1nc2c(s1)CN(C(=O)c1cc3c(F)cccc3[nH]1)CC2` [Example 195, 5-(4-fluoro-1H-indole-2-carbonyl)-4H,5H,6H,7H-[1,3]thiazolo[5,4-c]pyridin-2-amine] are 5 to 10 µM and 1000 to 10000 nM.
